Test results as given in US5231091A, “Bis-arylphosphate ester antagonists of platelet activating factor” (priority 1992, dated 1993).
Where a name gives a salt, the structure may show the parent alone.

Experiments:
PAF receptor [1] = molecular target: T1, PAF receptor (Oryctolagus cuniculus, UniProt G1TEI7); assay: Inhibition of PAF-induced aggregation in rabbit platelet rich plasma; type: cell-based, rabbit (male New Zealand White); conditions: rabbit platelet rich plasma; PAF challenge 5E-8M; number of experiments in parentheses; read-out: IC50 inhibition of PAF-induced aggregation
T1 construct: endogenous in cells; host or cells: rabbit platelets (male New Zealand White)
T1 sequence (G1TEI7 1-342): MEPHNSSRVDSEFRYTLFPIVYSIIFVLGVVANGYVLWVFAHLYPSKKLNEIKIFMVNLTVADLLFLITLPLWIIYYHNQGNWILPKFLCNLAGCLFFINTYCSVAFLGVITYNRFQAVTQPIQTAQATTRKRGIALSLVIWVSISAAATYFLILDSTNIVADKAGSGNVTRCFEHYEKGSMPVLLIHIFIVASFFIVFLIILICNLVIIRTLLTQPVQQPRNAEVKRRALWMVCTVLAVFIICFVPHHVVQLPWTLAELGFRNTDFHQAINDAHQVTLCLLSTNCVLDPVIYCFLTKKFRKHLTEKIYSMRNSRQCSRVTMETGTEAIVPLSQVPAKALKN
Experimental: (§1) Test compounds were evaluated as PAF receptor antagonists in vitro by measuring inhibition of PAF (platelet activating factor) induced platelet aggregation. Platelet aggregation was measured by a modification of the method described in A. Wissner, et. al., J. Med. Chem., 27, 1174, 1984.
Approximately 120-240 ml of blood were collected by cardiac puncture from unanesthetized male New Zealand White rabbits (Whaley's Summit View Farms, Belvedere, N.J.) with the use of 3.2% sodium citrate anticoagulant (1 part of citrate/10 parts of blood). All syringes and pipets were plastic. The blood was gently mixed and immediately centrifuged at 800 rpm for 10-15 minutes at room temperature to recover the platelet rich plasma (PRP). Platelet poor plasma (PPP) was prepared by centrifuging PRP at 2800 rpm for 10 minutes at room temperature.
Dilutions (1:3000) of PRP in Isoton® diluent were made and platelet counts were determined on a Coulter Thrombocounter which was standardized with platelet reference standards (Interscience Platelet Control, Portland, Oreg.). PRP platelet counts were adjusted to approximately 400,000-500,000 platelets/μl by the addition of PPP.
(§2) L-PAF was obtained from Calbiochem. A stock solution of 1-2 E-3M was prepared in 10% ethanol in water or 100% methanol and serial working dilutions were made using phosphate buffered saline (PBS). 1-2 E-3M stock solutions of test compounds were prepared in 100% methanol and serially diluted in PBS. All solutions were made up in plastic tubes, stored on ice and protected from heat and light. Solutions were prepared fresh or frozen at -20° C. and used within 48 hours.
(§3) Incubation mixtures consisted of 400 μl PRP, 50 μl of PBS diluent or test compound and 50 μl of PAF agonist. More specifically, 400 μl of PRP was stabilized in a cuvette for 1-2 minutes at 37° C. in the aggregometer to achieve a stable baseline, then 50 μl of PBS or test compound, was added and incubated for 5 minutes before addition of the challenge concentration of PAF (final concentration of 5E-8M or 1E-7M, as determined from the dose response curve for PAF for that experiment). Aggregation was monitored for 5 minutes. Samples containing test compound or diluent were run simultaneously for comparison. Test compounds were initially evaluated at a screening concentration of 1E-5M.
(§4) The recording equipment consisted of a dual channel Chronolog aggregometer connected to a dual channel 10 MV full scale deflection Omniscribe chart recorder (Houston Instruments). […] The bead suspension was used to set the 0% light transmission mark and clear water was used to set the 100% light transmission mark. These limits defined a full scale deflection. The aggregation traces were analyzed by a digitizing method (C. Kohler and B. Zoltan, J. Pharm. Methods, 12, 113, 1984) with x, y coordinate data stored in a computer file. A suitable program computed parameters of interest such as the magnitude of aggregation.

PAF receptor [2] = molecular target: T2, PAF receptor (Homo sapiens, UniProt P25105); assay: Inhibition of PAF-induced aggregation in human platelet rich plasma; type: cell-based; conditions: PAF challenge 1E-6M, number of experiments in parentheses
T2 construct: Blood from healthy volunteers was collected; endogenous in cells; host or cells: human platelets (healthy volunteers)
T2 sequence (P25105 whole entry): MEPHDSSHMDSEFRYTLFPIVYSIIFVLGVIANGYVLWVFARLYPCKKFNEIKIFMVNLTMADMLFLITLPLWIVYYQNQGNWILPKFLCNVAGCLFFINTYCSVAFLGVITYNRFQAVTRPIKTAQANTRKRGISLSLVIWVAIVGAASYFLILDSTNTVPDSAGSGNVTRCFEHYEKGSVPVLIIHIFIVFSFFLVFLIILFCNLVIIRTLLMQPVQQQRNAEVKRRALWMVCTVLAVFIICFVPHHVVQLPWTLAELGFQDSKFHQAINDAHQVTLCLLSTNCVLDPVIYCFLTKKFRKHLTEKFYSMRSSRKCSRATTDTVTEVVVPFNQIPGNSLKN
Experimental: as §1, §2, §3, §4
In some experiments, human PRP was used instead of rabbit PRP. Blood from healthy volunteers was collected in Vacutainers® containing the Na citrate diluent and processed in a manner similar to rabbit blood to obtain the PRP. For these experiments, the challenge concentration of PAF was 1E-6M.

PAF induced skin lesions = assay: Guinea pig vascular permeability (skin lesion) model; type: in vivo, guinea pig (Hartley)
PAF induced lethality = PAF induced lethality in mice; type: in vivo; conditions: corrected for control lethality
Experimental: PAF given I.V. to mice causes an immediate hypotensive shock leading to death in 1 hour or less. Compounds were given intraperitoneally or P.O. at various times before the PAF challenge. Animals alive after 2 hours were counted and the activity of test compounds expressed as % survival corrected for any control (saline treated) animals which survived the PAF challenge.

LPS induced hypotension = assay: Endotoxin (LPS) induced hypotension in rats; type: in vivo, rat (male Wistar); conditions: anesthetized rats; 10 ug/kg intraarterially 5 minutes after LPS 15 mg/kg I.V.
Experimental: Bacterial cell wall lipopolysaccharide from E. coli strain 0111:B4 (Sigma #L-2630) was dissolved in saline at a concentration of 3.75 mg/ml and administered to rats at 15 mg/kg I.V. Test compounds were dissolved in saline at 1 mg/ml, diluted to 10 ug/ml, and injected intraarterially at 1 ml/kg (10 ug/kg). Male wistar strain rats were obtained from Charles River Labs and maintained according to ALAC standards. They were anesthetized with 30 mg/kg pentobarbital ip with supplementation as needed. The throat was opened, the left carotid artery was cannulated with PE-10 tubing and the trachea cannulated with 0.100 O.D. tubing. Ventilation was maintained by a Harvard Apparatus small animal pump at a rate sufficient to nearly abolish spontaneous respiration.

[3] = tested on: endotoxin induced mortality; assay: Endotoxin induced shock and mortality in mice; type: in vivo, mouse (male Balb/c)
From the text: The test compounds (PAF antagonists) were also efficacious when administered iv prior to a lethal iv injection of endotoxin (Table IX).

PAF receptor [4] = molecular target: T1, PAF receptor; assay: Inhibition of PAF-induced aggregation in washed rabbit platelets; type: cell-based; conditions: PAF challenge 5E-9M, number of experiments in parentheses
Experimental: as §1, §2
More specifically, […] for 1-2 minutes at 37° C. in the aggregometer to achieve a stable baseline, then 50 μl of PBS or test compound, was added and incubated for 5 minutes before addition of the challenge concentration of PAF (final concentration of 5E-8M or 1E-7M, as determined from the dose response curve for PAF for that experiment). Aggregation was monitored for 5 minutes. Samples containing test compound or diluent were run simultaneously for comparison. Test compounds were initially evaluated at a screening concentration of 1E-5M. […]

[5] = footnote c: I.P. 4 mg/kg 1 hour before PAF
[6] = 10 mg/kg IP 2 hours prior to IP endotoxin

SMILES | IC50 (PAF receptor [1]) [nM] | IC50 (PAF receptor [2]) [nM] | 24 hour survival, treated [3, 6] | also measured
CCCCCCCCCCCCOc1cc(C(C)(C)C)c(OP(=O)([O-])Oc2cccc(C[n+]3cccc4ccccc43)c2)cc1C(C)(C)C [1-[[3-[[[2,5-Bis(1,1-dimethylethyl)-4-(dodecyloxy)phenoxy] hydroxyphosphinyl]oxy]phenyl]methyl]quinolinium, hydroxide, inner salt] | 1360 | 47500 |  | 
CCCCCCCCCCCCCCOc1cccc(OP(=O)([O-])Oc2cccc(C[n+]3ccsc3)c2)c1OC [3-[[3-[[Hydroxy]2-methoxy-3-(tetradecyloxy)phenoxy]-phosphinyl]oxy]phenyl]methyl]-thiazolium, hydroxide inner salt] | 7500 | 26400 | 7/30 | PAF induced skin lesions, % of control (PAF induced skin lesions; [5]): 75%; PAF induced lethality, % protection (PAF induced lethality; I.P. 10 mg/kg): 12%; % reversal of LPS induced hypotension (fall in mean arterial pressure) (LPS induced hypotension): 89%; 24 hour survival, treated ([3]; 30 mg/kg IP 2 hours prior to IP endotoxin, control 4/50): 12/50; Survival after 24 hrs., treated ([3]; Table IX, 10 mg/kg iv prior to iv endotoxin, footnote prints IP, control 0/20): 4/20
CCCCCCCCCCCCOc1cc(C(C)(C)C)c(OP(=O)([O-])Oc2cccc(C[n+]3ccsc3)c2)cc1C(C)(C)C [3-[[3-[[[2,5-Bis(1,1-dimethylethyl)-4-(dodecyloxy)phenoxy]hydroxyphosphinyl]oxy]phenyl]methyl]thiazolium, hydroxide, inner salt] |  | 1930 | 4/20 | IC50 (PAF receptor [4]): 2.12 nM; PAF induced skin lesions, % of control (PAF induced skin lesions; footnote d: P.O. 5 mg/kg 4 hours before PAF): 49%; PAF induced lethality, % protection (PAF induced lethality; [5]): 27%; 24 hour survival, treated ([3]; 20 mg/kg IP 2 hours prior to IP endotoxin): 6/20; 24 hour survival, treated ([3]; 40 mg/kg IP 2 hours prior to IP endotoxin): 6/20
CCCCCCCCCCCCCCCCOc1cccc(OP(=O)([O-])Oc2cccc(C[n+]3ccsc3)c2)c1C [3-[[3-[[[3-(Hexadecyloxy)-2-methylphenoxy]hydroxyphosphinyl]oxy]phenyl]methyl]-thiazolium, hydroxide, inner salt] | 2650 | 119 |  | 
CCCCCCCCCCCCCCCCOc1cccc(OP(=O)([O-])Oc2cccc(C[n+]3ccsc3)c2)c1 [3-[[3-[[[3-(Hexadecyloxy)phenoxy]hydroxyphosphinyl]-oxy]phenyl]methyl]-thiazolium, hydroxide, inner salt] | 2130 | 2500 |  | 
